In US9713651B2, “Compositions, methods, and systems for the synthesis and use of imaging agents” (Lantheus Medical Imaging, Inc., priority 2012, dated 2017):

Test: Tissue distribution of 18F imaging agents in rats
Format: in vivo, Male Sprague Dawley rats
Settings: rat, iv tail vein ~15 μCi, ± SEM; for Blood, imaging agent distribution at 15 min / Brain, imaging agent distribution at 15 min / Femur, imaging agent distribution at 15 min / Heart, imaging agent distribution at 15 min / Kidney, imaging agent distribution at 15 min / Liver, imaging agent distribution at 15 min / Lung, imaging agent distribution at 15 min / Muscle, imaging agent distribution at 15 min / Pancreas, imaging agent distribution at 15 min / Spleen, imaging agent distribution at 15 min: 15 min post injection; for Blood, imaging agent distribution at 60 min / Brain, imaging agent distribution at 60 min / Femur, imaging agent distribution at 60 min / Heart, imaging agent distribution at 60 min / Kidney, imaging agent distribution at 60 min / Liver, imaging agent distribution at 60 min / Lung, imaging agent distribution at 60 min / Muscle, imaging agent distribution at 60 min / Pancreas, imaging agent distribution at 60 min / Spleen, imaging agent distribution at 60 min: 60 min post injection
Description: Anesthetized (sodium pentobarbital at 50 mg/kg, ip or isoflurane gas inhalation) Male Sprague Dawley rats (250-350 g) received an iv injection of the imaging agent (˜15 μCi) via the tail vein. At 15 or 60 min post injection, the animals were euthanized and the required tissue samples harvested. All samples were then weighed and counted for radioactivity (Wallac Wizard 1480 or Packard Cobra II Autogamma); regional tissue uptake of the imaging agent was thus expressed as a percentage of the total injected dose per gram of tissue (% ID/g).
The generic structure depicted below highlights specific structural features evaluated during distribution experiments.

| Blood, imaging agent distribution at 15 min [% ID/g] | Brain, imaging agent distribution at 15 min [% ID/g] | Femur, imaging agent distribution at 15 min [% ID/g] | Heart, imaging agent distribution at 15 min [% ID/g] | Kidney, imaging agent distribution at 15 min [% ID/g] | Liver, imaging agent distribution at 15 min [% ID/g] | Lung, imaging agent distribution at 15 min [% ID/g] | Muscle, imaging agent distribution at 15 min [% ID/g] | Pancreas, imaging agent distribution at 15 min [% ID/g] | Spleen, imaging agent distribution at 15 min [% ID/g] | Blood, imaging agent distribution at 60 min [% ID/g] | Brain, imaging agent distribution at 60 min [% ID/g] | Femur, imaging agent distribution at 60 min [% ID/g] | Heart, imaging agent distribution at 60 min [% ID/g] | Kidney, imaging agent distribution at 60 min [% ID/g] | Liver, imaging agent distribution at 60 min [% ID/g] | Lung, imaging agent distribution at 60 min [% ID/g] | Muscle, imaging agent distribution at 60 min [% ID/g] | Pancreas, imaging agent distribution at 60 min [% ID/g] | Spleen, imaging agent distribution at 60 min [% ID/g] | SMILES |
| --- | --- | --- | --- | --- | --- | --- | --- | --- | --- | --- | --- | --- | --- | --- | --- | --- | --- | --- | --- | --- |
| 0.14 ± 0.01 | 0.30 ± 0.05 | 0.31 ± 0.01 | 1.19 ± 0.18 | 0.65 ± 0.07 | 1.71 ± 0.36 | 0.29 ± 0.03 | 0.27 ± 0.02 | 0.36 ± 0.06 | 0.18 ± 0.01 | 0.10 ± 0.02 | 0.22 ± 0.03 | 0.78 ± 0.15 | 0.62 ± 0.12 | 0.40 ± 0.08 | 2.06 ± 0.27 | 0.21 ± 0.02 | 0.20 ± 0.06 | 0.33 ± 0.08 | 0.11 ± 0.02 | CC(C)(C)n1ncc(OCc2ccc(-c3cnc(F)nc3)cc2)c(Cl)c1=O [Example 67L] |
| 0.07 ± 0.03 | 0.36 ± 0.04 | 0.27 ± 0.02 | 2.68 ± 0.35 | 1.35 ± 0.14 | 0.99 ± 0.06 | 0.37 ± 0.15 | 0.28 ± 0.02 | 0.55 ± 0.10 | 0.31 ± 0.09 | 0.03 ± 0.00 | 0.36 ± 0.03 | 0.37 ± 0.05 | 2.46 ± 0.27 | 0.83 ± 0.08 | 0.83 ± 0.17 | 0.15 ± 0.03 | 0.39 ± 0.04 | 0.38 ± 0.02 | 0.11 ± 0.02 | CC(C)(C)n1ncc(OCc2ccc(Oc3cccnc3F)cc2)c(Cl)c1=O [Example 67O] |
| 1.11 | 0.74 | 0.21 | 3.63 | 3.81 | 3.61 | 1.00 | 0.14 |  | 0.37 | 1.00 | 0.69 | 0.26 | 4.66 | 1.71 | 1.49 | 0.96 | 0.18 |  | 0.23 | CC(C)(C)n1ncc(OCc2ccc(OCCF)cc2)c(Cl)c1=O [Example 67D] |

The next lines start with the compound.

| SMILES | Blood, imaging agent distribution at 15 min [% ID/g] | Brain, imaging agent distribution at 15 min [% ID/g] | Femur, imaging agent distribution at 15 min [% ID/g] | Heart, imaging agent distribution at 15 min [% ID/g] | Kidney, imaging agent distribution at 15 min [% ID/g] | Liver, imaging agent distribution at 15 min [% ID/g] | Lung, imaging agent distribution at 15 min [% ID/g] | Muscle, imaging agent distribution at 15 min [% ID/g] | Pancreas, imaging agent distribution at 15 min [% ID/g] | Spleen, imaging agent distribution at 15 min [% ID/g] | Blood, imaging agent distribution at 60 min [% ID/g] | Brain, imaging agent distribution at 60 min [% ID/g] | Femur, imaging agent distribution at 60 min [% ID/g] | Heart, imaging agent distribution at 60 min [% ID/g] | Kidney, imaging agent distribution at 60 min [% ID/g] | Liver, imaging agent distribution at 60 min [% ID/g] | Lung, imaging agent distribution at 60 min [% ID/g] | Muscle, imaging agent distribution at 60 min [% ID/g] | Pancreas, imaging agent distribution at 60 min [% ID/g] | Spleen, imaging agent distribution at 60 min [% ID/g] |
| --- | --- | --- | --- | --- | --- | --- | --- | --- | --- | --- | --- | --- | --- | --- | --- | --- | --- | --- | --- | --- |
| CC(C)(C)n1ncc(OCc2ccc(C#CCCF)cc2)c(Cl)c1=O [Example 67K] | 0.07 ± 0.03 | 0.36 ± 0.04 | 0.27 ± 0.02 | 2.68 ± 0.35 | 1.35 ± 0.14 | 0.99 ± 0.06 | 0.37 ± 0.15 | 0.28 ± 0.02 | 0.55 ± 0.10 | 0.31 ± 0.09 | 0.03 ± 0.00 | 0.36 ± 0.03 | 0.37 ± 0.05 | 2.46 ± 0.27 | 0.83 ± 0.08 | 0.83 ± 0.17 | 0.15 ± 0.03 | 0.39 ± 0.04 | 0.38 ± 0.02 | 0.11 ± 0.02 |
| CC(C)(C)n1ncc(OCc2cccc(OCCF)c2)c(Cl)c1=O [Example 67F] | 0.32 ± 0.05 | 0.50 ± 0.04 | 0.44 ± 0.04 | 1.92 ± 0.15 | 1.04 ± 0.10 | 0.40 ± 0.04 | 0.41 ± 0.03 | 0.60 ± 0.06 | 0.52 ± 0.04 | 0.28 ± 0.01 | 0.48 ± 0.01 | 0.38 ± 0.01 | 0.57 ± 0.04 | 0.87 ± 0.02 | 0.60 ± 0.03 | 0.39 ± 0.04 | 0.44 ± 0.03 | 0.43 ± 0.07 | 0.48 ± 0.01 | 0.31 ± 0.01 |
| CC(C)(C)n1ncc(OCc2ccc(C(=O)OCCF)cc2)c(Cl)c1=O [Example 67J] | 0.50 ± 0.02 | 0.36 ± 0.01 | 0.28 ± 0.02 | 1.19 ± 0.25 | 0.39 ± 0.01 | 0.32 ± 0.01 | 0.39 ± 0.02 | 0.38 ± 0.04 | 0.23 ± 0.02 | 0.34 ± 0.01 | 0.58 ± 0.04 | 0.43 ± 0.02 | 0.40 ± 0.03 | 0.50 ± 0.03 | 0.42 ± 0.02 | 0.35 ± 0.02 | 0.42 ± 0.02 | 0.31 ± 0.02 | 0.23 ± 0.03 | 0.37 ± 0.02 |
| CC(C)(C)n1ncc(OCc2cccc(COCCF)c2)c(Cl)c1=O [Example 67A] | 0.03 ± 0.01 | 0.14 ± 0.05 | 0.06 ± 0.02 | 0.65 ± 0.36 | 0.38 ± 0.08 | 0.08 ± 0.03 | 0.07 ± 0.01 | 0.09 ± 0.04 | 0.15 ± 0.05 | 0.05 ± 0.01 | 0.11 ± 0.02 | 0.14 ± 0.03 | 0.17 ± 0.04 | 0.84 ± 0.22 | 0.23 ± 0.03 | 0.11 ± 0.02 | 0.11 ± 0.02 | 0.18 ± 0.04 | 0.13 ± 0.03 | 0.09 ± 0.02 |
| CC(C)(C)n1ncc(OCc2ccc(OCCOCCF)cc2)c(Cl)c1=O [Example 67B] | 0.49 ± 0.02 |  | 0.80 ± 0.12 | 1.66 ± 0.06 | 2.25 ± 0.05 | 2.33 ± 0.09 | 0.49 ± 0.04 | 0.19 ± 0.00 |  | 0.41 ± 0.01 | 0.26 ± 0.04 |  | 0.78 ± 0.22 | 1.58 ± 0.13 | 1.17 ± 0.20 | 1.34 ± 0.22 | 0.27 ± 0.03 | 0.15 ± 0.04 |  | 0.20 ± 0.04 |
